Where only a bound is given, the exact number is not on record here.

The target of one test is T1, Rat NPY5 Receptor (Rattus norvegicus, UniProt Q63634).
T1 sequence (Q63634 1-445): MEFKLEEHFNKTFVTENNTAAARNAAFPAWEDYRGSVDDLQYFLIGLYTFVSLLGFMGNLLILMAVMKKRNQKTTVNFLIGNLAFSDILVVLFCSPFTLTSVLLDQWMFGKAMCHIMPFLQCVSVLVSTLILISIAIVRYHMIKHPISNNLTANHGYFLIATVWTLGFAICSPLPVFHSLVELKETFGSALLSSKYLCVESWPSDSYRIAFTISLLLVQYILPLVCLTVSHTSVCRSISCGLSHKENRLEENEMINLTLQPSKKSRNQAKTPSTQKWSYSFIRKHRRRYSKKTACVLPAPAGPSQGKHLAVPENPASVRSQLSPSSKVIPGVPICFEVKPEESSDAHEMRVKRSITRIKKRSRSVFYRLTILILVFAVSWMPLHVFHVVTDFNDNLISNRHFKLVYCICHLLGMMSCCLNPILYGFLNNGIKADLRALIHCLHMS
Nature of the test: Rat NPY5 Receptor Binding Assay. The following applies: 10 μM, values marked *; read-out: rNPY5 percent inhibition at 10 μM.
As a reminder, the inhibition is the relative decrease from the control value, in per cent. For `O=C(CSc1ncc[nH]1)Nc1ccc(C(=O)c2ccccc2)cc1` [Compound 10, N-(4-Benzoyl-phenyl)-2-(1H-imidazol-2-ylsulfanyl)-acetamide], the inhibition at 10 µM came to 97%.

The test is the same for the next values; noted with them: [125I]PYY; read-out: rNPY5 IC50.
Broadly, the IC50 is the concentration at which inhibition is half-maximal. With `CC(Sc1nnnn1C)C(=O)Nc1ccc(C(C)(C)C)cc1` (centres unmarked) [Compound 125, N-(4-tert-Butyl-phenyl)-2-(1-methyl-1H-tetrazol-5-ylsulfanyl)-propionamide], the half-inhibitory concentration (IC50) amounted to 360 nM.

`Cn1nnnc1SCC(=O)Nc1cccc2c1Cc1ccccc1-2` [Compound 131, N-(9H-Fluoren-1-yl)-2-(1-methyl-1H-tetrazol-5-ylsulfanyl)-acetamide]: the IC50 is more than 1000 nM.

Turning to `O=C(CSc1nc(-c2ccccc2)no1)Nc1ccc(C(=O)c2ccccc2)cc1` [Compound 85, N-(4-Benzoyl-phenyl)-2-(3-phenyl-[1,2,4]oxadiazol-ylsulfanyl)-acetamide], the IC50 came to 220 nM.

For `Nc1ccc(SCC(=O)Nc2ccc(C(=O)c3ccccc3)cc2)cc1` [Compound 103, 2-(4-Amino-phenylsulfanyl)-N-(4-benzoyl-phenyl)-acetamide], the IC50 was more than 1000 nM.

In the case of `CSc1ccc(SCC(=O)Nc2ccc(C(=O)c3ccccc3)cc2)cc1` [Compound 108, N-(4-Benzoyl-phenyl)-2-(4-methylsulfanyl-phenylsulfanyl)-acetamide], the IC50 is more than 1000 nM.

With `O=C(CSc1ccnc2cc(C(F)(F)F)ccc12)Nc1ccc(C(=O)c2ccccc2)cc1` [Compound 88, N-(4-Benzoyl-phenyl)-2-(7-trifluoromethyl-quinolin-4-ylsulfanyl)-acetamide], the IC50 was more than 1000 nM.

As to `CN1CCC(OCC(=O)Nc2ccc(C3CCCCC3)cc2)CC1` [Compound 135, N-(4-Cyclohexyl-phenyl)-2-(1-methy-piperidin-4-yloxy)-acetamide], the IC50 was more than 1000 nM.

Turning to `O=C(CSc1nc(-c2ccccc2)no1)Nc1ccc(C2CCCCC2)cc1` [Compound 90, N-(4-Cyclohexyl-phenyl)-2-(3-phenyl-[1,2,4]oxadiazol-ylsulfanyl)-acetamide], the IC50 was found to be 340 nM.

In the case of `O=C(COc1ccccc1)Nc1ccc(C(=O)c2ccccc2)cc1` [Compound 134, N-(4-Benzoyl-phenyl)-2-phenoxy-acetamide], the IC50 was more than 1000 nM.

Consider `O=C(CSc1n[nH]c(-c2ccco2)n1)Nc1ccc(C(=O)c2ccccc2)cc1` [Compound 118], for which the IC50 is more than 1000 nM.

Turning to `Nc1cc(N)nc(SCC(=O)Nc2ccc(C(=O)c3ccccc3)cc2)n1` [Compound 84, N-(4-Benzoyl-phenyl)-2-(4,6-diamino-pyrimidin 2-ylsulfanyl)-acetamide], the IC50 is more than 1000 nM.

With `COc1cccc(SCC(=O)Nc2ccc(C(=O)c3ccccc3)cc2)c1` [Compound 106, N-(4-Benzoyl-phenyl)-2-(3-methoxy-phenylsulfanyl)-acetamide], the IC50 was more than 1000 nM.

Regarding `O=C(CSc1ncnc2ccccc12)Nc1ccc(C(=O)c2ccccc2)cc1` [Compound 82, N-(4-Benzoyl-phenyl)-2-(quinazolin-4-ylsulfanyl)-acetamide], the IC50 was more than 1000 nM.

On to `O=C(CSc1ccc2ccccc2n1)Nc1ccc(C(=O)c2ccccc2)cc1` [Compound 100, N-(4-Benzoyl-phenyl)-2-(quinolin-2-ylsulanyl)-acetamide], for which the IC50 was more than 1000 nM.

In the case of `Cn1nnnc1SCC(=O)Nc1nc2ccccc2s1` [Compound 128, N-Benzothiazol-2-yl-2-(1-methyl-1H-tetrazol-5-ylsulfanyl)-acetamide], the IC50 was more than 1000 nM.

In the case of `Cn1nnnc1SCC(=O)N1CCCCCC1` [Compound 129, 1-Azepan-1-yl-2-(1-methyl-1H-tetrazol-5-ylsulfanyl)-ethanone], the IC50 is more than 1000 nM.

Take `CN1CCC(OCC(=O)Nc2ccc(C(=O)c3ccccc3)cc2)CC1` [Compound 133, N-(4-Benzoyl-phenyl)-2-(1-methyl-piperidin-4-yloxy)-acetamide]: the half-inhibitory concentration (IC50) was more than 1000 nM.

Consider `O=C(CSc1ccc2ccccc2n1)Nc1ccc(C2CCCCC2)cc1` [Compound 95, N-(4-Cyclohexyl-phenyl)-2-(quinolin-2-ylsulfanyl)-acetamide], for which the IC50 was more than 1000 nM.

Take `Cc1cc(C)c(CSCC(=O)Nc2ccc(C(=O)c3ccccc3)cc2)c(C)c1` [Compound 107, N-(4-Benzoyl-phenyl)-2-(2,4,6-trimethyl-benzylsulfanyl)-acetamide]: the IC50 is more than 1000 nM.

With `Cn1nnnc1SCC(=O)NCCc1cccs1` [Compound 126, 2-(1-Methyl-1H-tetrazol-5-ylsulfanyl)-N-(2-thiophen-2-yl-ethyl)-acetamide], the IC50 was more than 1000 nM.

For `Cc1cnc(SCC(=O)Nc2ccc(C(=O)c3ccccc3)cc2)nc1S` [Compound 104, N-(4-Benzoyl-phenyl)-2-(4-mercapt-5-methyl-pyrimidin-2-ylsulfanyl)-acetamide], the IC50 was more than 1000 nM.

For `Cc1nc(SCC(=O)Nc2ccc(C(=O)c3ccccc3)cc2)n[nH]1` [Compound 81, N-(4-Benzoyl-phenyl)-2-(5-methyl-1H-[1,2,4]triazol-3-ylsulfanyl)-acetamide], the IC50 was more than 1000 nM.

With `O=C(COc1ccccc1)Nc1ccc(C2CCCCC2)cc1` [Compound 132, N-(4-Cyclohexyl-phenyl)-2-phenoxy-acetamide], the IC50 is more than 1000 nM.

In the case of `CSc1sc(-c2nnc(SCC(=O)Nc3ccc(C4CCCCC4)cc3)n2C)c2c1C=CCC2` [Compound 112, N-(4-Cyclohexyl-phenyl)-2-[4-methyl-5-(3-methylsulfanyl-6,7-dihydro-benzo[C]thiophen-1-yl)-4H-[1,2,4]triazol-3-ylsulfanyl]-acetamide], the IC50 was more than 1000 nM.

Take `COc1ccc(-c2nnc(SCC(=O)Nc3ccc(C4CCCCC4)cc3)n2-c2cccc(C(F)(F)F)c2)cc1` [Compound 113, N-(4-Cyclohexyl-phenyl)-2-[5-(4-methoxy-phenyl)-4-(3-trifluoromethyl-phenyl)-4-[1,2,4]triazol-3-ylsulfanyl]-acetamide]: the IC50 was more than 1000 nM.

`Nc1nc(S)nc(SCC(=O)Nc2ccc(C(=O)c3ccccc3)cc2)n1` [Compound 105, 2-(4-Amino-mercapto-[1,3,5]triazin-2-ylsulfanyl)-N-(4-benzoyl-phenyl)-acetamide]: the IC50 is more than 1000 nM.

`O=C(CSc1nnc(CSCCOc2ccc(Cl)cc2Cl)o1)Nc1ccc(C2CCCCC2)cc1` [Compound 117]: the IC50 was more than 1000 nM.

Consider `O=C(CSc1ccnc2cc(C(F)(F)F)ccc12)Nc1ccc(C2CCCCC2)cc1` [Compound 93, N-(4-Cyclohexyl-phenyl)-2-(7-trifluoromethyl-quinolin-4-ylsulfanyl)-acetamide], for which the IC50 was more than 1000 nM.

The target of a further test is T2, Human NPY5 Receptor (Homo sapiens, UniProt Q15761).
T2 sequence (Q15761 1-445): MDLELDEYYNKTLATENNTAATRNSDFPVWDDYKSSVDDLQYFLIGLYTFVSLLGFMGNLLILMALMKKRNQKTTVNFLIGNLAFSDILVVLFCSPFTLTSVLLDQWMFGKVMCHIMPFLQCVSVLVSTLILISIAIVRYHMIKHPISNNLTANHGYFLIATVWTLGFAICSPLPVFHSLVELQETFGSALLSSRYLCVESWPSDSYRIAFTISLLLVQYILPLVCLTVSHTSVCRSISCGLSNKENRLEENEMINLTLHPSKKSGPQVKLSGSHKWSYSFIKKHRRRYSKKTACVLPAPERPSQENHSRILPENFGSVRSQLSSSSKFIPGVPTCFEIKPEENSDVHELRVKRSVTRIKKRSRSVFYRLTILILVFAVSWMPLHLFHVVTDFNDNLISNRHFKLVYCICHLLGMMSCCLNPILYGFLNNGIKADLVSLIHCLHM
Nature of the test: Human NPY5 Receptor Binding Assay. The following applies: [125I]PYY; read-out: hNPY5 IC50.
Turning to `CC(Sc1nnnn1C)C(=O)Nc1ccc(C(C)(C)C)cc1` (centres unmarked) [Compound 125, N-(4-tert-Butyl-phenyl)-2-(1-methyl-1H-tetrazol-5-ylsulfanyl)-propionamide], the IC50 is 1000 nM.

Consider `Nc1nc(SCC(=O)Nc2ccc(C3CCCCC3)cc2)nc(O)c1N=O` [Compound 78, 2-(4-Amino-6-hydroxy-5-nitroso-pyrimidin-2-ylsulfanyl)-N-(4-Cyclohexyl-phenyl)-acetamide], for which the IC50 is more than 1000 nM.

Consider `O=C(CSc1nc(-c2ccccc2)no1)Nc1ccc(C(=O)c2ccccc2)cc1` [Compound 85, N-(4-Benzoyl-phenyl)-2-(3-phenyl-[1,2,4]oxadiazol-ylsulfanyl)-acetamide], for which the IC50 worked out at 200 nM.

For `O=C(CSc1nc(-c2ccccc2)no1)Nc1ccc(C2CCCCC2)cc1` [Compound 90, N-(4-Cyclohexyl-phenyl)-2-(3-phenyl-[1,2,4]oxadiazol-ylsulfanyl)-acetamide], the IC50 is 260 nM.

In the case of `Cc1nc(SCC(=O)Nc2ccc(C3CCCCC3)cc2)n[nH]1` [Compound 73, N-(4-Cyclohexyl-phenyl)-2-(5-methyl-1H-[1,2,4]triazol-3-ylsulfanyl)-acetamide], the IC50 is more than 1000 nM.

In the case of `O=C(CSc1nc2cc(Cl)ccc2s1)Nc1ccc(C2CCCCC2)cc1` [Compound 79], the IC50 was more than 1000 nM.

On to `Cc1cc(C)nc(SCC(=O)Nc2ccc(C3CCCCC3)cc2)n1` [Compound 80, N-(4-Cyclohexyl-phenyl)-2-(4,6-dimethyl-pyrimidin-2-ylsulfanyl)-acetamide], for which the IC50 was more than 1000 nM.

As for `Nc1cc(N)nc(SCC(=O)Nc2ccc(C3CCCCC3)cc2)n1` [Compound 76, N-(4-Cycyclohexyl-phenyl)-2-(4,6-diamino-pyrimidin-2-ylsulfanyl)-cetamide], the IC50 is more than 1000 nM.

For `O=C(CSc1nccc(C(F)(F)F)n1)Nc1ccc(C2CCCCC2)cc1` [Compound 75, N-(4-Cyclohexyl-phenyl)-2-(4-trifluoromethylpyrimidin-2-ylsulfanyl)-acetamide], the IC50 was more than 1000 nM.

Consider `O=C(CSc1ncnc2ccccc12)Nc1ccc(C2CCCCC2)cc1` [Compound 74, N-(4-Cyclohexyl-phenyl)-2-(quinazolin-4-ylsulfanyl)-acetamide], for which the IC50 was more than 1000 nM.

As for `CCOc1ccc2nc(SCC(=O)Nc3ccc(C4CCCCC4)cc3)sc2c1` [Compound 77, N-(4-Cyclohexyl-phenyl)-2-(6-ethoxy-benzothiazol-2-ylsulfanyl)-acetamide], the IC50 was more than 1000 nM.

As to `Cc1ccnc(SCC(=O)Nc2ccc(C3CCCCC3)cc2)n1` [Compound 29], the IC50 is 190 nM.

The record behind these values is patent publication US6245817A, “NPY5 receptor antagonists and methods for using same” (Bayer Corporation, priority 1999, dated 2001).
